# Measurements as given in ChEMBL document CHEMBL2311291, “Novel P2 tris-tetrahydrofuran group in antiviral compound 1 (GRL-0519) fills the S2 binding pocket of selected mutants of HIV-1 protease” (J Med Chem, 2013).
# pKi: −log10 of the molar value.
# Columns and labels:
# [1] = biological target: Human immunodeficiency virus type 1 protease (Human immunodeficiency virus 1, UniProt Q72874, I54M); assay: Inhibition of HIV-1 protease I54M mutant using Abz-Thr-Ile-Nle-p-nitro-Phe-Gln-Arg-NH2 as substrate incubated for 5 mins prior to substrate addition measured for 5 mins by fluorescence assay
# [2] = biological target: Human immunodeficiency virus type 1 protease (Human immunodeficiency virus 1, UniProt Q72874, I50V); assay: Inhibition of HIV-1 protease I50V mutant using Abz-Thr-Ile-Nle-p-nitro-Phe-Gln-Arg-NH2 as substrate incubated for 5 mins prior to substrate addition measured for 5 mins by fluorescence assay
# [3] = biological target: Human immunodeficiency virus type 1 protease (Human immunodeficiency virus 1, UniProt Q72874, D30N); assay: Inhibition of HIV-1 protease D30N mutant using Abz-Thr-Ile-Nle-p-nitro-Phe-Gln-Arg-NH2 as substrate incubated for 5 mins prior to substrate addition measured for 5 mins by fluorescence assay
# [4] = biological target: Human immunodeficiency virus type 1 protease (Human immunodeficiency virus 1, UniProt Q72874, R8Q); assay: Inhibition of HIV-1 protease R8Q mutant using Abz-Thr-Ile-Nle-p-nitro-Phe-Gln-Arg-NH2 as substrate incubated for 5 mins prior to substrate addition measured for 5 mins by fluorescence assay
# Protease = Protease (Human immunodeficiency virus 1, UniProt Q9YQ12); assay: Inhibition of HIV-1 wildtype protease using Abz-Thr-Ile-Nle-p-nitro-Phe-Gln-Arg-NH2 as substrate incubated for 5 mins prior to substrate addition measured for 5 mins by fluorescence assay
# Protease, sequence (Q9YQ12 whole entry): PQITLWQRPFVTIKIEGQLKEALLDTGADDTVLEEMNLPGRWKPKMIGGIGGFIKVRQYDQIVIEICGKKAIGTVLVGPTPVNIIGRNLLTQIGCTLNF
# [5] = test system: Human immunodeficiency virus 1; assay: Ratio of Ki for HIV-1 protease V82A mutant to Ki for HIV-1 wildtype protease
# [6] = test system: Human immunodeficiency virus 1; assay: Ratio of Ki for HIV-1protease I54M mutant to Ki for HIV-1 wildtype protease
# [7] = test system: Human immunodeficiency virus 1; assay: Ratio of Ki for HIV-1 protease D30N mutant to Ki for HIV-1 wildtype protease
# [8] = test system: Human immunodeficiency virus 1; assay: Ratio of Ki for HIV-1 protease I50V mutant to Ki for HIV-1 wildtype protease
# [9] = biological target: Human immunodeficiency virus type 1 protease (Human immunodeficiency virus 1, UniProt Q72874, V82A); assay: Inhibition of HIV-1 protease V82A mutant using Abz-Thr-Ile-Nle-p-nitro-Phe-Gln-Arg-NH2 as substrate incubated for 5 mins prior to substrate addition measured for 5 mins by fluorescence assay
# [10] = test system: Human immunodeficiency virus 1; assay: Ratio of Ki for HIV-1 protease R8Q mutant to Ki for HIV-1 wildtype protease
smiles,measurement,setting,value
COc1ccc(S(=O)(=O)N(CC(C)C)C[C@@H](O)[C@H](Cc2ccccc2)NC(=O)O[C@H]2CO[C@H]3O[C@@H]4OCC[C@@H]4[C@H]32)cc1,pKi,[1],8.46
same,pKi,[2],7.51
same,pKi,[3],8.05
same,pKi,[4],8.92
same,pKi,Protease,9.30
same,Ratio Ki,[5],6
same,Ratio Ki,[6],7
same,Ratio Ki,[7],18
same,Ratio Ki,[8],60
same,pKi,[9],8.49
same,Ratio Ki,[10],2
